In patent US4129721A, “A-40104 antibiotics and process for production thereof” (priority 1977, dated 1978):
Values after ≈ are worked out from the molar mass of the structure shown. Where two headings read alike, the source gives them in different places.

What was measured:
[1] = system: swine dysentery; conditions: W. E. Brown et al., U.S. Pat. No. 4,041,175; cited from earlier work
[2] = acute toxicity, intraperitoneal injection in mice; conditions: mouse, in vivo, ip
Source text: A special advantage of the A-40104 antibiotics is that they are relatively nontoxic.

[3] = system: Mycoplasma synoviae; experiment: in vitro broth-dilution studies, mycoplasma; type: cell-based
Source text: (§1) The minimal inhibitory concentrations (MIC's) of A-40104 factor A; 19,20-dihydro-A-40104 factor A; and the tetraacetyl derivative of A-40104A against various mycoplasma species, as determined by in vitro broth-dilution studies, are summarized in Table IX.

[4] = system: Mycoplasma gallisepticum; experiment: in vitro broth-dilution studies, mycoplasma; type: cell-based
Source text: as §1

[5] = system: Mycoplasma hyorhinis; experiment: in vitro broth-dilution studies, mycoplasma; type: cell-based
Source text: as §1

[6] = system: Mycoplasma hyopneumoniae; experiment: in vitro broth-dilution studies, mycoplasma; type: cell-based
Source text: as §1

[7] = system: Streptococcus pyogenes; experiment: gradient-plate agar-dilution method; type: cell-based
[8] = system: Streptococcus sp. 9960 (Group D); experiment: gradient-plate agar-dilution method; type: cell-based
[9] = system: Neisseria gonorrhea Sand.; experiment: gradient-plate agar-dilution method; type: cell-based
[10] = system: Hemophilus influenzae 260; experiment: gradient-plate agar-dilution method; type: cell-based; conditions: Haemophilus influenzae
[11] = system: Hemophilus influenzae 259; experiment: gradient-plate agar-dilution method; type: cell-based; conditions: Haemophilus influenzae
[12] = system: Hemophilus influenzae Brun; experiment: gradient-plate agar-dilution method; type: cell-based; conditions: Haemophilus influenzae
[13] = system: Hemophilus influenzae Dick.; experiment: gradient-plate agar-dilution method; type: cell-based; conditions: Haemophilus influenzae
[14] = system: Neisseria gonorrhea Lind.; experiment: gradient-plate agar-dilution method; type: cell-based
[15] = system: Streptococcus sp. X-66 (Group D); experiment: gradient-plate agar-dilution method; type: cell-based
[16] = system: Hemophilus influenzae 251; experiment: gradient-plate agar-dilution method; type: cell-based; conditions: Haemophilus influenzae
[17] = system: Streptococcus pyogenes C203; experiment: experimental bacterial infection in mice; type: in vivo; conditions: sc, two doses, challenge 1,690 × LD50 (ip), read-out: ED50 × 2
[18] = system: Staphylococcus aureus 3055; experiment: experimental bacterial infection in mice; type: in vivo; conditions: two doses, read-out: ED50 × 2
[19] = system: Pasteurella hemolytica; experiment: standard in vitro tests, Pasteurella; type: cell-based
Source text: (§2) Another veterinary aspect of this invention is the activity of the A-40104 antibiotics against Pasteurella species. P. multocida, for example, is a causative agent of respiratory infection in cattle, poultry, and swine. P. hemolytica is a major cause of respiratory disease in cattle. The activity of A-40104 factor A and its dihydro derivative against Pasteurella, as determined by standard in vitro tests, is summarized in Table X.

[20] = system: Pasteurella multocida (bovine); experiment: standard in vitro tests, Pasteurella; type: cell-based
Source text: as §2

[21] = system: Streptococcus pneumoniae BI-492; experiment: experimental bacterial infection in mice; type: in vivo; conditions: BI492, sc, two doses, challenge 340 × LD50 (ip), read-out: ED50 × 2
[22] = system: Streptococcus pneumoniae Bi-343; experiment: experimental bacterial infection in mice; type: in vivo; conditions: BI343, sc, two doses, challenge 30 × LD50 (ip), read-out: ED50 × 2
[23] = system: experimental bacterial infections; experiment: experimental bacterial infections in mice (general statement); type: in vivo
Protocol: When two doses of these compounds were administered to mice in illustrative infections, the activity observed was measured as an ED50 value [effective dose in mg./kg. to protect 50 percent of the test animals; see Warren Wick, et al., J. Bacteriol. 81, 233-235 (1961)].

In the case of C=C[C@]1(C)C[C@@H](OC(=O)CO)[C@]2(C)[C@H](C)CC[C@]3(CCC(=O)[C@H]32)[C@@H](C)[C@@H]1O [pleuromutilin], the “effect in treatment of swine dysentery” value [1] is listed as “effective in the treatment of swine dysentery”.

In the case of C=CC1(C)CC(OC(=O)CO[C@@H]2OC[C@@H](OC(C)=O)[C@H](OC(C)=O)[C@H]2OC(C)=O)C2(C)C(C)CCC3(CCC(=O)C32)C(C)C1OC(C)=O (some centres unmarked) [Tetraacetyl A-40104A, tetraacetyl derivative of A-40104 factor A], the LD50 [2] is reported as greater than 300 mg/kg, the “minimal inhibitory concentration (MIC)” value [3] is reported as 50.0 and the “minimal inhibitory concentration (MIC)” value [4] is reported as 12.5. The “minimal inhibitory concentration (MIC)” value [5] was 25.0 and the “minimal inhibitory concentration (MIC)” value [6] was 12.5.

With CC1(C)S[C@@H]2[C@H](NC(=O)[C@H](N)c3ccccc3)C(=O)N2[C@H]1C(=O)O [Ampicillin, reference compound] the MIC [7] was less than 0.01 µg/mL, the MIC [8] was 0.6 µg/mL (≈ 1.72 µM) and the MIC [9] was 0.07 µg/mL (≈ 0.2 µM). For the same molecule, the MIC [10] was 70 µg/mL (≈ 200 µM), the MIC [11] was 70 µg/mL (≈ 200 µM) and the MIC [12] was 0.5 µg/mL (≈ 1.43 µM). The MIC [13] was 0.5 µg/mL (≈ 1.43 µM), the MIC [14] was 0.5 µg/mL (≈ 1.43 µM) and the MIC [15] was 0.8 µg/mL (≈ 2.29 µM). The MIC [16] was 70 µg/mL (≈ 200 µM).

Work on CCC1(C)CC(OC(=O)CO[C@@H]2OC[C@@H](O)[C@H](O)[C@H]2O)C2(C)C(C)CCC3(CCC(=O)C32)C(C)C1O (some centres unmarked) [Dihydro-A-40104A, 19,20-dihydro A-40104 factor A] yielded an ED50 [17] of 5.8 mg/kg, an ED50 ([18]; Staphylococcus aureus, 3055, po, oral, challenge 500 × LD50 (ip)) of 27 mg/kg and an ED50 ([18]; Staphylococcus aureus, 3055, po, oral, challenge 3,400 × LD50 (ip)) of 28 mg/kg. For the same molecule, the ED50 ([18]; Staphylococcus aureus, 3055, sc, sc, challenge 69.5 × LD50 (ip)) was no more than 4.4 mg/kg, the “minimal inhibitory concentration (MIC)” value [3] was 0.195 and the “minimal inhibitory concentration (MIC)” value [4] was 0.195. For the same molecule, the “minimal inhibitory concentration (MIC)” value [5] was 0.195, the “minimal inhibitory concentration (MIC)” value [6] was 0.097 and the MIC [19] was 16.5 µg/mL (≈ 32.2 µM). It also gave an MIC [20] of 6.25 µg/mL (≈ 12.2 µM), an ED50 [21] of 15.2 mg/kg and an ED50 [22] of 35 mg/kg. For the same molecule, the “in vivo antimicrobial activity” value [23] was “have shown in vivo antimicrobial activity”.
